Measurements reported in patent publication US20240166612A1, “ARYLTHIOETHER ACETAMIDE AND RELATED COMPOUNDS AND THEIR USE IN TREATING MEDICAL CONDITIONS” (X-Biotix Therapeutics, Inc., priority 2021, published 2024).
Values after ≈ are worked out from the molar mass of the structure shown.

What was measured:
[1] = target: T1, recombinant LpxA enzyme (P. aeruginosa) (Pseudomonas aeruginosa, UniProt Q9X6P4); test: LpxA in vitro substrate acylation assay with RapidFire MS analysis (P. aeruginosa); type: biochemical; settings: P. aeruginosa enzyme 0.5 nM, PaACP-C10, 30 min
T1 sequence (Q9X6P4 1-258): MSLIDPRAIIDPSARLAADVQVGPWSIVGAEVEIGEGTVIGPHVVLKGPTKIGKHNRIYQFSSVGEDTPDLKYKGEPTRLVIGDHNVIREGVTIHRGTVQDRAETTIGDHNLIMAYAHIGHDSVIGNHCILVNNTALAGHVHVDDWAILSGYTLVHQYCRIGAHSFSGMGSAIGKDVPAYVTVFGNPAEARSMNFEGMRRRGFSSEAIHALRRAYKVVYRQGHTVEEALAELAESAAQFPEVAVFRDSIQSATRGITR
Protocol: Exemplary compounds from the above Examples were tested for ability to inhibit LpxA activity using an in vitro substrate acylation assay with RapidFire™ MS analysis. Assay procedures and results are described below.
Reactions were carried out in a final volume of 30 μL with 25 mM HEPES (pH 7.3), 150 mM NaCl, 2 mM DTT, 0.01% BSA, 5 μM UDP-GlcNac, recombinant LpxA enzyme (0.5 nM P. aeruginosa or 1.0 nM E. coli, both produced at Evotec), 0.5 μM acyl-transfer reagent (decanoyl P. aeruginosa acyl-carrier protein [PaACP-C10] or myristoyl E. coli acyl-carrier protein [EcACP-C1-4], both produced at Evotec), and 1% DMSO containing test compound. After 30 min incubation at room temperature, reactions were stopped by addition of 30 μL of 10% TCA in water.
Samples were centrifuged (4350 rpm, 4° C., 5 min), and then subjected to RapidFire™ MS analysis on an Agilent RapidFire 300 coupled to an Agilent 6460 triple-quadrupole mass spectrometer. Analytes were retained on a C4 (type A) cartridge using the following solvents and flow rates: • Pump 1—H2O with 5 mM NH4OAc at 2.0 mL/min, • Pump 2—MeOH/H2O (90/10) at 1.5 mL/min, • Pump 3—MeOH/H2O (90/10) at 0.5 mL/min, and • Pump 4—ACN (organic)/H2O (aqueous). Substrate and product of the reaction were detected in negative mode ESI-MS/MS by MRM (multiple reaction monitoring) of transitions 606.0/385.0 (UDP-GlcNAc substrate) and 776.2/385.0 (UDP-3-O—(R-3-hydroxydecanoyl)-GlcNAc product, for P. aeruginosa LpxA assay) or 832.2/385.0 (UDP-3-O—(R-3-hydroxymyristoyl)-GlcNAc product, for E. coli LpxA assay).
For IC50 determinations, peak areas of the substrate and product were compared to compute the proportion of product formed by the LpxA enzyme at each compound concentration.

[2] = system: Wild-type P. aeruginosa PAO1; test: Broth microdilution MIC, wild-type P. aeruginosa PAO1; type: cell-based; settings: Pseudomonas aeruginosa; wild-type P. aeruginosa PAO1, 37° C., 18 h; read-out: PAO1 WT MIC
Protocol: (§1) Exemplary compounds from the above Examples were tested to determine their minimum inhibitory concentration (MIC) for exemplary strains of Escherichia and Pseudomonas bacteria using broth microdilution methods. Assay procedures and results are described below.
(§2) Broth microdilution assays were conducted according to Clinical and Laboratory Standards Institute guidelines (CLSI, M07-A^11: Clinical and Laboratory Standards Institute. Methods for Dilution Antimicrobial Susceptibility Tests for Bacteria that Grow Aerobically; Approved Standard-11th Edition. Wayne, PA: CLSI, 2018). Briefly, bacterial suspensions were adjusted to a density equivalent to a 0.5 McFarland standard and diluted in sterile, cation-adjusted Mueller-Hinton broth (Beckton Dickinson) to yield a final inoculum between 2×10^5 and 8×10^5 colony-forming units (CFU)/mL. An inoculum volume of 98 μL was added to wells containing 2 μL of 2-fold serial dilutions of drug (prepared in DMSO). All inoculated microdilution trays were incubated in ambient air at 37° C. for 18 h. […] Performance of the assay was monitored by the use of laboratory quality-control strains (S. aureus ATCC 29213 and P. aeruginosa ATCC 27853) and levofloxacin, a compound with a defined MIC spectrum, in accordance with CLSI guidelines (CLSI, M100Ed29: Clinical and Laboratory Standards Institute. Performance Standards for Antimicrobial Susceptibility Testing, 29th Edition. Wayne, PA: CLSI, 2018).
(§3) Multiple enterobacteriaceae strains were tested, including both wild-type strains and multi-drug resistance pump deficient mutants. Specific strains tested included the following: • Wild-type P. aeruginosa PAO1, • P. aeruginosa PAO1 ΔmexABoprM—Disabled multi-drug efflux system Δ(MexAB-OprM), • P. aeruginosa PAO397—PAO1Δ(mexAB-oprM) Δ(mexCD-oprJ) Δ(mexEF-oprN) Δ(mexJK) Δ(mexXY) ΔopmH, • P. aeruginosa LESB58—Clinical isolate; colistin-resistant, isolated in the United Kingdom in 1988 from a patient with cystic fibrosis • E. coli JW0452-3 (BW25113 JacrA::kan)—Disabled multi-drug efflux system (AcrAB-TolC).
(§4) Experimental results are provided in Table 11, which provides MIC values for wild-type P. aeruginosa PAO1 (“PAO1 WT MIC”), P. aeruginosa PAO ΔmexABoprM (“PAO1 KO MIC”), P. aeruginosa PAO397 (“PAO397 KO MIC”), P. aeruginosa LESB58 (“LESB58”), and E. coli JW0452-3 (BW25113 JacrA::kan) (“E. coli KO MIC”).

P. aeruginosa LESB58 = test: Broth microdilution MIC, P. aeruginosa LESB58; type: cell-based; settings: Pseudomonas aeruginosa; P. aeruginosa LESB58 clinical isolate, colistin-resistant, 37° C., 18 h
Protocol: as §1, §2, §3, §4

[3] = system: P. aeruginosa PAO1 ΔmexABoprM; test: Broth microdilution MIC, P. aeruginosa PAO1 ΔmexABoprM; type: cell-based; settings: Pseudomonas aeruginosa, PAO1, 18 h, read-out: PAO1 KO MIC
Protocol: as §1, §2, §3, §4

P. aeruginosa PAO397 = test: Broth microdilution MIC, P. aeruginosa PAO397; type: cell-based; settings: Pseudomonas aeruginosa, PAO397, 18 h, read-out: PAO397 KO MIC
Protocol: as §1, §2, §3, §4

SMILES | IC50 [1] [nM] | MIC [2] [µg/mL] | MIC (P. aeruginosa LESB58) [µg/mL] | MIC [3] [µg/mL] | MIC (P. aeruginosa PAO397) [µg/mL]
N#Cc1ccc(CN(Cc2nnc(N)o2)C(=O)c2cc3cccc(Cl)c3s2)c(F)c1 [compound 97] | > 1000 | > 64 | > 64 | – | –
CCc1c(F)cc(F)cc1OCC(=O)N(Cc1ccc2c(c1)CC(=O)N2)Cc1nnc(N)o1 [compound 83] | < 20 | > 64 | 16 to 64 (≈ 35 to 140 µM) | – | –
Cc1nnc(CN(Cc2ccc(C#N)cc2)C(=O)CSc2ccccc2Cl)o1 [Compound No. 65, 2-(2-Chlorophenyl)sulfanyl-N-[(4-cyanophenyl)methyl]-N-[(5-methyl-1,3,4-oxadiazol-2-yl)methyl]acetamide] | – | > 64 | – | > 64 | 1 to 16 (≈ 2.42 to 38.8 µM)
N#Cc1ccc(CN(Cc2nnc(N)o2)C(=O)COc2cc(F)cc(F)c2Br)c(F)c1 [compound 96] | < 20 | 16 to 64 (≈ 32.2 to 129 µM) | 1 to 16 (≈ 2.02 to 32.2 µM) | – | –
N#Cc1ccc(CN(Cc2c[nH]cn2)C(=O)CSc2ccccc2Cl)cc1 [compound 43] | – | > 64 | – | > 64 | 1 to 16 (≈ 2.52 to 40.3 µM)
NCc1ccc(CN(Cc2nnc(N)o2)C(=O)CSc2ccccc2Cl)cc1 [Compound No. 61, N-[[4-(Aminomethyl)phenyl]methyl]-N-[(5-amino-1,3,4-oxadiazol-2-yl)methyl]-2-(2-chlorophenyl)sulfanyl-acetamide] | > 1000 | > 64 | – | – | 16 to 64 (≈ 38.3 to 153 µM)
N#Cc1ccc(CN(Cc2cc[nH]n2)C(=O)CSc2ccccc2Cl)cc1 [compound 49] | 100 to 1000 | > 64 | – | – | 1 to 16 (≈ 2.52 to 40.3 µM)
CCc1ccccc1SCC(=O)N(Cc1ccc(C#N)cc1)Cc1nnc(N)o1 [Compound No. 10] | – | > 64 | – | 1 to 16 (≈ 2.45 to 39.3 µM) | < 1
Nc1nnc(CN(Cc2ccc([N+](=O)[O-])nc2)C(=O)COc2cc(F)cc(F)c2C2CC2)o1 [compound 87] | 20 to 100 | > 64 | > 64 | – | –
N#Cc1ccc(CN(Cc2nnc(O)o2)C(=O)CSc2ccccc2Cl)cc1 [Compound No. 66, 2-(2-Chlorophenyl)sulfanyl-N-[(4-cyanophenyl)methyl]-N-[(5-hydroxy-1,3,4-oxadiazol-2-yl)methyl]acetamide] | – | > 64 | – | 1 to 16 (≈ 2.41 to 38.6 µM) | < 1
Cc1cnc(CN(Cc2ccc(C#N)cc2)C(=O)CSc2ccccc2Cl)o1 [compound 72] | 100 to 1000 | > 64 | – | – | 1 to 16 (≈ 2.43 to 38.8 µM)
CCc1ccccc1OCC(=O)N(Cc1ccc(C#N)cc1)Cc1nnc(N)o1 [compound 32] | – | > 64 | – | 1 to 16 (≈ 2.55 to 40.9 µM) | < 1
[2H]C([2H])(Oc1ccccc1C([2H])([2H])C([2H])([2H])[2H])C(=O)N(Cc1ccc(C#N)nc1)Cc1nnc(N)o1 [compound 88] | 20 to 100 | > 64 | > 64 | – | –
CCc1cccc(OCC(=O)N(Cc2nnc(N)o2)Cc2ccc(C#N)cc2F)c1 [compound 110] | 100 to 1000 | > 64 | > 64 | – | –
Nc1nnc(CN(Cc2csc([N+](=O)[O-])c2)C(=O)COc2cc(F)cc(F)c2C2CC2)o1 [compound 89] | 20 to 100 | > 64 | > 64 | – | –
Nc1nnc(CN(Cc2ccc([N+](=O)[O-])cc2F)C(=O)COc2cc(F)cc(F)c2C2CC2)o1 [compound 86] | < 20 | 16 to 64 (≈ 33.5 to 134 µM) | 1 to 16 (≈ 2.09 to 33.5 µM) | – | –
N#Cc1ccc(CN(Cc2cn[nH]c2)C(=O)CSc2ccccc2Cl)cc1 [compound 50] | 100 to 1000 | > 64 | – | – | 1 to 16 (≈ 2.52 to 40.3 µM)
CCc1c(F)cc(F)cc1OCC(=O)N(Cc1ccc([N+](=O)[O-])cc1)Cc1nnc(N)o1 [compound 95] | < 20 | 16 to 64 (≈ 35.8 to 143 µM) | 1 to 16 (≈ 2.24 to 35.8 µM) | – | –
N#Cc1ccc(CN(CC(=O)N[C@@H](CN)C(=O)O)C(=O)CSc2cc(F)cc(F)c2Cl)c(F)c1 [compound 107] | 100 to 1000 | > 64 | > 64 | – | –
[2H]C([2H])(Oc1cc(F)cc(F)c1C([2H])([2H])C([2H])([2H])[2H])C(=O)N(Cc1nnc(N)o1)Cc1ccc([N+](=O)[O-])cc1F [compound 78] | < 20 | 1 to 16 (≈ 2.12 to 33.9 µM) | 1 to 16 (≈ 2.12 to 33.9 µM) | – | –
[2H]C([2H])(Oc1ccccc1C([2H])([2H])C([2H])([2H])[2H])C(=O)N(Cc1nnc(N)o1)Cc1ccc([N+](=O)[O-])cc1F [compound 92] | 20 to 100 | > 64 | 16 to 64 (≈ 36.7 to 147 µM) | – | –
N#Cc1ccc(CN(Cc2nnc(O)o2)C(=O)CSc2cc(OCCN)ccc2Cl)c(F)c1 [compound 116] | > 1000 | > 64 | > 64 | – | –
N#Cc1ccc(CN(C(=O)CSc2ccccc2Cl)C2(c3nnc(N)o3)CC2)c(F)c1 [compound 23] | 20 to 100 | > 64 | – | – | 1 to 16 (≈ 2.18 to 34.9 µM)
[2H]C([2H])(Oc1ccccc1C([2H])([2H])C([2H])([2H])[2H])C(=O)N(Cc1ccc([N+](=O)[O-])cc1)Cc1nnc(N)o1 [compound 93] | 20 to 100 | > 64 | > 64 | – | –
Nc1nnc(CN(Cc2ccc([N+](=O)[O-])cc2)C(=O)COc2cc(F)cc(F)c2C2CC2)o1 [compound 84] | < 20 | 16 to 64 (≈ 34.8 to 139 µM) | 1 to 16 (≈ 2.18 to 34.8 µM) | – | –
N#Cc1ccc(CN(CC(=O)N2CCOC[C@@H]2CN)C(=O)CSc2cc(F)cc(F)c2Cl)c(F)c1 [compound 106] | > 1000 | > 64 | > 64 | – | –
